No end group written: not given here.
Assays:
[1] = test system: HCC1937 cells lacking BRCA1; experiment: MTT assay, caPCNA peptides alone and in combination with cisplatin; format: cell-based, human
Procedure: Breast cancer cells were obtained from a patient harboring a hereditary mutation in BRCA1, a major component of DNA double strand break repair (HCC1937 cells). HCC1937 is a near-tetraploid cell line from mammary gland whose cells are homozygous for a frameshift mutation in BRCA1. The cell line is available at ATCC.
MTT [3-(4,5-dimethylthiazol-2-yl)-2,5-diphenyltetrazolium bromide] assays were conducted with caPCNA peptides at a variety of time points both alone and in combination with a DNA damaging agent e.g., cisplatin in HCC1937 and HCC1937+wild-type BRCA1 cells. The MTT assay is based on the ability of a mitochondrial dehydrogenase enzyme from viable cells to cleave the tetrazolium rings of the pale yellow MTT dye and form dark blue formazan crystals. These formazan crystals are largely impermeable to cell membranes and thus accumulate within healthy cells. Solubilization of the cells by the addition of a detergent results in the liberation and solubilization of the crystals. The number of proliferating cells is directly proportional to the level of formazan product created. The color can then be quantified using a simple colorimetric assay. The results are read on a multiwall scanning spectrophotometer (ELISA reader). The peptides used in these experiments including caPCNA peptide, Q131A ([…] (SEQ ID NO: 5)), and P129A ([…] (SEQ ID NO: 3)) were ordered and obtained from Anaspec (Fremont, Calif.). ca PCNA peptide was dissolved in sterile 1×PBS solution to create a 1.5 mM stock concentration. caPCNA peptides with alanine substitutions (e.g., P129A (SEQ ID NO: 3) and Q131A (SEQ ID NO: 5)) were dissolved in sterile 1×PBS solution to create 1.0 mM stock solutions.
MTT assays: The efficacy of caPCNA peptides (caPeptides) were tested using the MTT assays: HCC1937 and HCC137+wildtype BRCA1 cells were grown in DMEM 1× (supplemented with 10% fetal bovine serum and 5% penicillin/streptomycin) and were plated at a densities of 5.5×10^3 or 7×10^3, respectively, in 96 well plates (100 μL total volume per well) and allowed to attach overnight in a 37° C. incubator (5% CO2). Then, caPCNA peptide stock solution was diluted to final working concentrations in DMEM 1× (10% fetal bovine serum and 5% penicillin/streptomycin) of 150 μM, 100 μM, 75 μM, 50 and 25 μM. Media was removed from cells and replaced with media containing caPCNA peptide at various concentrations (200 μL total volume per well). Cells were cultured with caPCNA peptide-containing media for 24, 48 or 72 hours. At the appropriate treatment timepoint, 20 μL MTT (5 mg/mL in PBS) reagent was added to each well and plates were incubated for an additional 4 hours. Media/dye solution was then aspirated and 200 μL DMSO was added to each well. Plates were rocked at room temperature for five minutes to dissolve crystals and transferred to an ELISA plate reader. Absorbance was measured at 550 nm. The extent to which caPeptides inhibited cell proliferation was calculated as a percentage of the absorbance in each well containing caPCNA peptide relative to wells containing no caPCNA peptide (negative control) for both HCC1937 and HCC1937+wild-type BRCA1 cells.
Efficacy of P129A (SEQ ID NO: 3) and Q131A (SEQ ID NO: 5) caPCNA peptides: Cells were cultured and plated in 96 well plates as described herein. P129A (SEQ ID NO: 3) or Q131A (SEQ ID NO: 5) stock solution was diluted to final working concentrations in DMEM 1× (10% fetal bovine serum and 5% penicillin/streptomycin) of 100 μM, 75 μM, 50 μM, 25 μM, and 12.5 μM. Media was removed from cells and replaced with media containing P129A (SEQ ID NO: 3) or Q131A (SEQ ID NO: 5) caPCNA peptides at various concentrations (200 μL total volume per well) and cells were cultured with peptide-containing media for 24 hours. After 24 hours, the MTT assay was completed and data analysis was performed as described herein. […]

[2] = test system: HCC1937+wild-type BRCA1 cells; experiment: as above; format: cell-based, human
Procedure: As a genetically matched control, wild-type BRCA1 has been transduced into HCC1937 cells (referred to as HCC1937+wild-type BRCA1). HCC1937+wild-type BRCA1 cells were selected for maintenance of the vector using 1 μg/mL puromycin. All cells in these assays were used at passage numbers <25.
MTT [3-(4,5-dimethylthiazol-2-yl)-2,5-diphenyltetrazolium bromide] assays were conducted with caPCNA peptides at a variety of time points both alone and in combination with a DNA damaging agent e.g., cisplatin in HCC1937 and HCC1937+wild-type BRCA1 cells. […] The color can then be quantified using a simple colorimetric assay. The results are read on a multiwall scanning spectrophotometer (ELISA reader). […]
MTT assays: The efficacy of caPCNA peptides (caPeptides) were tested using the MTT assays: HCC1937 and HCC137+wildtype BRCA1 cells were grown in DMEM 1× (supplemented with 10% fetal bovine serum and 5% penicillin/streptomycin) and were plated at a densities of 5.5×10^3 or 7×10^3, respectively, in 96 well plates (100 μL total volume per well) and allowed to attach overnight in a 37° C. incubator (5% CO2). […] Plates were rocked at room temperature for five minutes to dissolve crystals and transferred to an ELISA plate reader. Absorbance was measured at 550 nm. […]

U937 cells = experiment: Cytotoxic effects of R9-linked caPCNA peptides, % cell death by flow cytometry; format: cell-based; settings: for Effect of alanine substitution on cytotoxic action of the peptide (in words): compared with unsubstituted R9-caPCNA peptide
Procedure: R9 refers to a cell penetrating peptide that includes a polyarginine sequence e.g., nine contiguous arginine residues. Alanine substitutions in the caPCNA peptide affect its cytotoxic action. U937 cells were treated with each alanine substituted peptide and the scrambled peptide and % cell death evaluated by flow cytometry.

MCF 10A (non-malignant) = experiment: Preferential killing of cancer cells by R9-caPeptide; format: cell-based
MCF 7 (breast cancer) = experiment: as above; format: cell-based
[3] = test system: HCC1937+wild-type BRCA1 cells; experiment: Clonogenic survival assay after caPCNA peptide treatment; format: cell-based, human; settings: 100 μM peptide for 48 hours, 13 days growth
Procedure: (§1) Clonogeizic survival assay: Clonogenic survival after caPCNA peptide treatment: The purpose of this experiment was to determine the effects of high caPCNA peptide treatment (100 μM caPCNA peptide for 48 hours) on ability of cells plated at low density to proliferate and form colonies. HCC1937 and HCC1937+wild-type BRCA1 cells were plated in 6-well plates and allowed to attach overnight at 37° C.
(§2) Then, media was removed and replaced with 100 μM caPCNA peptide in DMEM 1× (10% fetal bovine serum and 5% penicillin/streptomycin). Untreated cells were used as a negative control. Plates were incubated with media containing peptide for 48 hours. Live cells were then collected, counted, plated at low density ([…] cells in 10 cm2 dishes) and allowed to grow in DMEM 1× (20% fetal bovine serum, 5% penicillin/streptomycin) for 13 days. After 13-day incubation, media was removed and plates were washed twice with 1×PBS. Cells were fixed with 70% EtOH for 10 minutes, dried, and stained for 1 hour with 20% Giemsa diluted in MilliQ water. Dye was removed; plates were rinsed, dried overnight and photographed. Images shown are representative of results obtained for treated and untreated HCC1937 and HCC1937+wild-type BRCA1 cells.

HCC1937 cells = experiment: as above; format: cell-based, human; settings: 100 μM peptide for 48 hours, 13 days growth; effect more pronounced than in cells with wild-type BRCA1
Procedure: as §1, §2

[4] = HCC1937 and HCC1937+wild-type BRCA1 cells, 24 hours

N.N.[Cl][Pt][Cl] [cisplatin, reference compound]
IC50 ([1]; HCC1937 cells lacking BRCA1, cisplatin alone, FIG. 4A, read-out: IC50 value for cisplatin alone (growth inhibition)): ~155 µM
Sensitivity of cells to cisplatin (MTT) ([1]; HCC1937 cells, FIG. 3A): relatively resistant
Sensitivity of cells to cisplatin (MTT) ([2]; HCC1937+wild-type BRCA1 cells, FIG. 3B): relatively resistant
IC50 ([2]; HCC1937 cells with BRCA1, cisplatin alone, FIG. 4B, read-out: IC50 value for cisplatin alone (growth inhibition)): > 200 µM

A1-sub. Peptide: R9-linked caPCNA 126-133 peptide with alanine at position 1, L126 (SEQ ID NO: 59) (RRRRRRRRRAGIPEQEY; R9 linked)
Effect of alanine substitution on cytotoxic action of the peptide (in words) (U937 cells): reduced cytotoxic activity

A2-sub. Peptide: R9-linked caPCNA 126-133 peptide with alanine at position 2, G127 (SEQ ID NO: 60) (RRRRRRRRRLAIPEQEY; R9 linked)
Effect of alanine substitution on cytotoxic action of the peptide (in words) (U937 cells): neutral change

A3-sub. Peptide: R9-linked caPCNA 126-133 peptide with alanine at position 3, I128 (SEQ ID NO: 61) (RRRRRRRRRLGAPEQEY; R9 linked)
Effect of alanine substitution on cytotoxic action of the peptide (in words) (U937 cells): decrease in cytotoxic action but not to the levels of aa126 or aa133

A4-sub. Peptide: R9-linked caPCNA 126-133 peptide with alanine at position 4, P129 (SEQ ID NO: 62) (RRRRRRRRRLGIAEQEY; R9 linked)
Effect of alanine substitution on cytotoxic action of the peptide (in words) (U937 cells): increase in cytotoxicity

A5-sub. Peptide: R9-linked caPCNA 126-133 peptide with alanine at position 5, E130 (SEQ ID NO: 63) (RRRRRRRRRLGIPAQEY; R9 linked)
Effect of alanine substitution on cytotoxic action of the peptide (in words) (U937 cells): neutral change

A6-sub. Peptide: R9-linked caPCNA 126-133 peptide with alanine at position 6, Q131 (SEQ ID NO: 64) (RRRRRRRRRLGIPEAEY; R9 linked)
Effect of alanine substitution on cytotoxic action of the peptide (in words) (U937 cells): increase in cytotoxicity

A7-sub. Peptide: R9-linked caPCNA 126-133 peptide with alanine at position 7, E132 (SEQ ID NO: 65) (RRRRRRRRRLGIPEQAY; R9 linked)
Effect of alanine substitution on cytotoxic action of the peptide (in words) (U937 cells): increase in cytotoxicity

A8-sub. Peptide: R9-linked caPCNA 126-133 peptide with alanine at position 8, Y133 (SEQ ID NO: 66) (RRRRRRRRRLGIPEQEA; R9 linked)
Effect of alanine substitution on cytotoxic action of the peptide (in words) (U937 cells): reduced cytotoxic activity

LGIAEQEY [Peptide P129A]
Efficacy in comparison to wild-type peptides (MTT) [1, 4]: enhanced efficacy

LGIPEAEY [Peptide Q131A]
Efficacy in comparison to wild-type peptides (MTT) [1, 4]: enhanced efficacy
Rank of efficacy among the peptides tested (MTT) [1, 4]: appears to be more effective of these peptides tested

R9-caPeptide: R9 (nonaarginine)-linked caPCNA peptide of Table 6; exact sequence not printed there (LGIPEQEY; also: linked to nonaarginine (R9), site not given here; UniProt P12004 126-133, looked up, fragment) [Peptide R9-caPeptide]
% Dead Cells (MCF 10A (non-malignant)): 18.2%
% Dead Cells (MCF 7 (breast cancer)): 91.5%

Unsub. Peptide: R9-linked caPCNA 126-133 peptide LGIPEQEY, unsubstituted (SEQ ID NO: 58) (RRRRRRRRRLGIPEQEY; R9 linked)
% cancer cell death (U937 cells; flow cytometry): 43 ± 10%

caPCNA peptide: caPCNA-derived peptide (aa 126-133) obtained from Anaspec; the figure legends call it R9-caPCNA / R9-PCNA peptide (LGIPEQEY; also: R9 (nonaarginine) linked, site not given here; UniProt P12004 126-133, looked up, fragment)
Sensitivity of cells to caPCNA peptides (MTT) ([1]; HCC1937 in comparison to HCC1937+wild-type BRCA1 cells, 24, 48 and 72 hour treatment): trend of increased sensitivity
Colony formation [3]: inhibits colony formation
Colony formation (HCC1937 cells): inhibits colony formation

Source: patent US20120195978A1, “CAPCNA PEPTIDE THERAPEUTICS FOR CANCER” (Indiana University Research and Technology Corpora, priority 2009, published 2012)
